Data published in publication PMC11845477, “Exploring the principles behind antibiotics with limited resistance” (Nature Communications, 2025).
Where a SMILES comes first, the peptide text is derived from it. Bridges are numbered along the chain shown (N, C = ends). [ ]: non-standard residue; d: D form. The star is where a group is joined. X1 = NC[C@@H](CC(=O)*)c1cccc(Cl)c1; X2 = CC[C@H](C)CCCCC(=O)*; Dab = NCC[C@H](N)C(=O)O; Dap = NC[C@H](N)C(=O)O

Tested on: P. aeruginosa ATCC BAA-3107 (SEN) and P. aeruginosa LESB58 (MDR)
Experiment: Adaptive laboratory evolution (ALE), relative MIC of evolved lines
Type: cell-based, Pseudomonas aeruginosa
Source text: Using the same set of bacterial strains, we initiated adaptive laboratory evolution with the aim to maximize the level of antibiotic resistance in the populations achieved during a longer, but fixed time period.
An established protocol for adaptive laboratory evolution[46],[73] was followed to propagate populations with the highest resistance levels. Starting with an antibiotic concentration that caused approximately 50% growth inhibition, ten parallel populations for each antibiotic-ancestor strain combination were grown for 72 hours at 37 °C with continuous shaking (300 RPM). MHB broth medium was used unless stated otherwise. After each incubation, 20 µl of each culture was transferred to four new wells containing fresh medium with increasing antibiotic concentrations (0.5×, 1×, 1.5×, and 2.5× the previous concentration) in a chessboard layout to monitor potential cross-contamination. Growth was monitored by measuring OD600 using a Biotek Synergy 2 microplate reader, and only populations grown in the highest drug concentration with an OD600 > 0.2 were transferred further.
A robotic liquid handling system was used to automatically prepare a 11 to 16-step serial dilution in 384-well microtiter plates (Greiner). A final concentration of 5 × 10^5 bacterial cells per mL were inoculated into each well containing 60 µL MHB medium. Bacterial cultures were incubated at 37 °C with continuous shaking (Infors shaker, 900 rpm with 3 mm throw) for 18 hours (2 replicates from each). Cell growth was monitored by measuring the optical density (OD600 values, using Biotek Synergy microplate reader). MIC was defined as the antibiotic concentration of complete growth inhibition (i.e., OD600 < 0.05). Relative MIC was calculated as follows:1 relativeMIC=MICevolved/MICancestor […]
Supplementary Figure 4. Resistance levels following adaptive laboratory evolution across bacterial strains. The level of resistance was measured as the fold change in relative MIC between evolved and ancestral strains after ~60 days of adaptive laboratory evolution. Data are grouped by bacterial strain (A. baumannii (AB), E. coli (EC), K. pneumoniae (KP), and P. aeruginosa (PA)) and categorized as either multidrug-resistant (MDR) or sensitive (SEN). Each data point represents a laboratory evolved line, and boxplots show the median, first and third quartiles, with whiskers indicating the 5th and 95th percentiles.
Statistical analysis was performed using two-sided Dunn’s post-hoc test with Benjamini-Hochberg correction for multiple comparisons (****/ ***/ **/ * indicates p < 0.0001/ 0.001/ 0.01/ 0.05). For detailed information on antibiotic and bacterial species, see Supplementary Table 1. For mode of action groups, refer to Table 1. Source data are provided as a Source Data file.

[1] = PA-SEN (ATCC BAA 3107), evolved line 2
[2] = PA-SEN (ATCC BAA 3107), evolved line 4
[3] = PA-SEN (ATCC BAA 3107), evolved line 8
[4] = PA-SEN (ATCC BAA 3107), evolved line 9
[5] = PA-SEN (ATCC BAA 3107), evolved line 10
[6] = PA-SEN ATCC BAA 3107, evolved line 1
[7] = PA-MDR (Pseudomonas aeruginosa LESB 58), evolved line 1
[8] = PA-MDR (Pseudomonas aeruginosa LESB 58), evolved line 6
[9] = PA-MDR, Pseudomonas aeruginosa LESB 58, evolved line 9
[10] = PA-SEN, Pseudomonas aeruginosa ATCC BAA 3107, evolved line 1
[11] = PA-SEN, Pseudomonas aeruginosa ATCC BAA 3107, evolved line 4
[12] = PA-SEN, Pseudomonas aeruginosa ATCC BAA 3107, evolved line 5

COc1c(N2C[C@@H]3CCCN[C@@H]3C2)c(F)cc2c(=O)c(C(=O)O)cn(C3CC3)c12 [Moxifloxacin]
256 µg/mL: MIC of evolved line [1] | MIC of evolved line (PA-SEN (ATCC BAA 3107), evolved line 7) | MIC of evolved line [4]
512 µg/mL: MIC of evolved line (PA-SEN (ATCC BAA 3107), evolved line 3) | MIC of evolved line (PA-SEN (ATCC BAA 3107), evolved line 6) | MIC of evolved line [3] | MIC of evolved line [6]
128 µg/mL: MIC of evolved line [2] | MIC of evolved line [5]

CC[C@H](C)CCCCC(=O)N[C@@H](CCN)C(=O)N[C@H](C(=O)N[C@@H](CCN)C(=O)N[C@H]1CCNC(=O)[C@H]([C@@H](C)O)NC(=O)[C@H](CCN)NC(=O)[C@H](CCN)NC(=O)[C@H](CC(C)C)NC(=O)[C@@H](Cc2ccccc2)NC(=O)[C@H](CCN)NC1=O)[C@@H](C)O [Polymyxin B] (X2-[Dab]T[Dab][Dab][Dab][dF]L[Dab][Dab]T; lactam 4-C (inferred); N-terminus assumed)
1.806 log10: Relative MIC (log10) [8] | Relative MIC (log10) [9]
1.505 log10: Relative MIC (log10) [7] | Relative MIC (log10) [10] | Relative MIC (log10) [11] | Relative MIC (log10) [12]
1.204 log10: Relative MIC (log10) (PA-MDR, Pseudomonas aeruginosa LESB 58, evolved line 7) | Relative MIC (log10) (PA-SEN, Pseudomonas aeruginosa ATCC BAA 3107, evolved line 7) | Relative MIC (log10) (PA-SEN, Pseudomonas aeruginosa ATCC BAA 3107, evolved line 8)
2.107 log10: Relative MIC (log10) (PA-MDR, Pseudomonas aeruginosa LESB 58, evolved line 2)

CC(C)C[C@@H]1NC(=O)[C@@H](Cc2ccccc2)NC(=O)[C@H](CCN)NC(=O)[C@@H](NC(=O)[C@H](CN)NC(=O)[C@@H](NC(=O)C[C@H](CN)c2cccc(Cl)c2)[C@@H](C)O)CCNC(=O)[C@H]([C@@H](C)O)NC(=O)[C@H](CCN)NC(=O)[C@H](CCN)NC1=O [SPR206] (X1-T[Dap][Dab][Dab][dF]L[Dab][Dab]T; lactam 3-C (inferred); N-terminus assumed)
1.505 log10: Relative MIC (log10) [8] | Relative MIC (log10) (PA-MDR, Pseudomonas aeruginosa LESB 58, evolved line 10) | Relative MIC (log10) (PA-SEN, Pseudomonas aeruginosa ATCC BAA 3107, evolved line 2) | Relative MIC (log10) (PA-SEN, Pseudomonas aeruginosa ATCC BAA 3107, evolved line 9)
64 µg/mL: MIC of evolved line (PA-MDR (LESB 58), evolved line 5) | MIC of evolved line (PA-MDR (LESB 58), evolved line 7) | MIC of evolved line (PA-MDR (LESB 58), evolved line 9) | MIC of evolved line (PA-MDR LESB 58, evolved line 1) | MIC of evolved line (PA-MDR LESB 58, evolved line 2) | MIC of evolved line (PA-MDR LESB 58, evolved line 3)
2: Relative MIC (ALE, P. aeruginosa ATCC BAA 3107 (PA-SEN), evolved line 10) | Relative MIC (PA-SEN (ATCC BAA 3107), evolved line 10, evolved vs ancestor) | Relative MIC (Pseudomonas aeruginosa ATCC BAA 3107 (PA-SEN), evolved line 10)
1.204 log10: Relative MIC (log10) [7] | Relative MIC (log10) [9] | Relative MIC (log10) (PA-MDR, Pseudomonas aeruginosa LESB 58, evolved line 3) | Relative MIC (log10) [10] | Relative MIC (log10) [11] | Relative MIC (log10) [12]
16: Relative MIC (ALE, P. aeruginosa ATCC BAA 3107 (PA-SEN), evolved line 1) | Relative MIC (ALE, P. aeruginosa ATCC BAA 3107 (PA-SEN), evolved line 4) | Relative MIC (ALE, P. aeruginosa ATCC BAA 3107 (PA-SEN), evolved line 5) | Relative MIC (PA-MDR (LESB 58), evolved line 1, evolved vs ancestor) | Relative MIC (PA-MDR (LESB 58), evolved line 2, evolved vs ancestor) | Relative MIC (PA-MDR (LESB 58), evolved line 3, evolved vs ancestor) | Relative MIC (PA-MDR (LESB 58), evolved line 5, evolved vs ancestor) | Relative MIC (PA-MDR (LESB 58), evolved line 7, evolved vs ancestor) | Relative MIC (PA-MDR (LESB 58), evolved line 9, evolved vs ancestor) | Relative MIC (PA-SEN (ATCC BAA 3107), evolved line 1, evolved vs ancestor) | Relative MIC (PA-SEN (ATCC BAA 3107), evolved line 4, evolved vs ancestor) | Relative MIC (PA-SEN (ATCC BAA 3107), evolved line 5, evolved vs ancestor) | Relative MIC (Pseudomonas aeruginosa ATCC BAA 3107 (PA-SEN), evolved line 1) | Relative MIC (Pseudomonas aeruginosa ATCC BAA 3107 (PA-SEN), evolved line 4) | Relative MIC (Pseudomonas aeruginosa ATCC BAA 3107 (PA-SEN), evolved line 5) | Relative MIC (Pseudomonas aeruginosa LESB 58 (PA-MDR), evolved line 1) | Relative MIC (Pseudomonas aeruginosa LESB 58 (PA-MDR), evolved line 2) | Relative MIC (Pseudomonas aeruginosa LESB 58 (PA-MDR), evolved line 3) | Relative MIC (Pseudomonas aeruginosa LESB 58 (PA-MDR), evolved line 5) | Relative MIC (Pseudomonas aeruginosa LESB 58 (PA-MDR), evolved line 7) | Relative MIC (Pseudomonas aeruginosa LESB 58 (PA-MDR), evolved line 9)
32: Relative MIC (ALE, P. aeruginosa ATCC BAA 3107 (PA-SEN), evolved line 2) | Relative MIC (ALE, P. aeruginosa ATCC BAA 3107 (PA-SEN), evolved line 9) | Relative MIC (PA-MDR (LESB 58), evolved line 6, evolved vs ancestor) | Relative MIC (PA-MDR (LESB 58), evolved line 10, evolved vs ancestor) | Relative MIC (PA-SEN (ATCC BAA 3107), evolved line 2, evolved vs ancestor) | Relative MIC (PA-SEN (ATCC BAA 3107), evolved line 9, evolved vs ancestor) | Relative MIC (Pseudomonas aeruginosa ATCC BAA 3107 (PA-SEN), evolved line 2) | Relative MIC (Pseudomonas aeruginosa ATCC BAA 3107 (PA-SEN), evolved line 9) | Relative MIC (Pseudomonas aeruginosa LESB 58 (PA-MDR), evolved line 6) | Relative MIC (Pseudomonas aeruginosa LESB 58 (PA-MDR), evolved line 10)
32 µg/mL: MIC of evolved line (PA-MDR (LESB 58), evolved line 4) | MIC of evolved line [1] | MIC of evolved line [4]
128 µg/mL: MIC of evolved line (PA-MDR (LESB 58), evolved line 6) | MIC of evolved line (PA-MDR (LESB 58), evolved line 10)
8: Relative MIC (ALE, P. aeruginosa ATCC BAA 3107 (PA-SEN), evolved line 8) | Relative MIC (PA-MDR (LESB 58), evolved line 4, evolved vs ancestor) | Relative MIC (PA-SEN (ATCC BAA 3107), evolved line 8, evolved vs ancestor) | Relative MIC (Pseudomonas aeruginosa ATCC BAA 3107 (PA-SEN), evolved line 8) | Relative MIC (Pseudomonas aeruginosa LESB 58 (PA-MDR), evolved line 4)
16 µg/mL: MIC of evolved line (PA-MDR (LESB 58), evolved line 8) | MIC of evolved line [2] | MIC of evolved line (PA-SEN (ATCC BAA 3107), evolved line 5) | MIC of evolved line [6]
4: Relative MIC (PA-MDR (LESB 58), evolved line 8, evolved vs ancestor) | Relative MIC (Pseudomonas aeruginosa LESB 58 (PA-MDR), evolved line 8)
8 µg/mL: MIC of evolved line [3]
2 µg/mL: MIC of evolved line [5]

POL7306
2: Relative MIC (ALE, Pseudomonas aeruginosa ATCC BAA 3107 (PA-SEN), evolved line 1) | Relative MIC (ALE, Pseudomonas aeruginosa ATCC BAA 3107 (PA-SEN), evolved line 2) | Relative MIC (ALE, Pseudomonas aeruginosa ATCC BAA 3107 (PA-SEN), evolved line 3) | Relative MIC (ALE, Pseudomonas aeruginosa ATCC BAA 3107 (PA-SEN), evolved line 4) | Relative MIC (ALE, Pseudomonas aeruginosa ATCC BAA 3107 (PA-SEN), evolved line 6) | Relative MIC (ALE, Pseudomonas aeruginosa ATCC BAA 3107 (PA-SEN), evolved line 8)
